Measurements taken from ChEMBL document CHEMBL1201862, “PubChem BioAssay data set” (2004).
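The compound was tested at five concentrations on cells cultured in 96-well plates, with a 48-hour exposure period. GI50 = concentration required for 50% inhibition of growth.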 Calls of active or inactive are those of the source. Rule as the data show it: active = GI50 up to about 1.1 µM and inactive = higher.

Tests used:
Experiment in all cases: DTP human tumour cell line panel, 48 h
[1] = test system: CAKI-1
[2] = test system: UO-31
[3] = test system: IGROV-1
[4] = test system: UACC-62
[5] = test system: EKVX
[6] = test system: CCRF-CEM
[7] = test system: KM12
[8] = test system: NCI-H23
[9] = test system: HCC 2998
[10] = test system: NCI-H460
[11] = test system: KM-20L2
[12] = test system: OVCAR-5
[13] = test system: MCF7
[14] = test system: K562
[15] = test system: HT-29
[16] = test system: HOP-18
[17] = test system: A498
[18] = test system: Malme-3M
[19] = test system: HCT-116
[20] = test system: SF-539
[21] = test system: NCI-H226
[22] = test system: OVCAR-3
[23] = test system: U-251
[24] = test system: MOLT-4
[25] = test system: SN12C
[26] = test system: SK-MEL-5
[27] = test system: SK-OV-3
[28] = test system: SF-295
[29] = test system: SK-MEL-28
[30] = test system: NCI-H522
[31] = test system: UACC-257
[32] = test system: NCI/ADR-RES
[33] = test system: DLD-1
[34] = test system: SNB-19
[35] = test system: DMS-273
[36] = test system: RPMI-8226
[37] = test system: SNB-75
[38] = test system: SW-620
[39] = test system: SK-MEL-2
[40] = test system: OVCAR-4
[41] = test system: HCT-15
[42] = test system: RXF 393
[43] = test system: DMS-114
[44] = test system: LOX IMVI
[45] = test system: OVCAR-8
[46] = test system: COLO 205
[47] = test system: XF498
[48] = test system: M19-MEL
[49] = test system: HOP-92
[50] = test system: A549
[51] = test system: SNB-78
[52] = test system: SF-268
[53] = test system: HOP-62

## O=Cc1c(Cn2ccnc2)c2cc([N+](=O)[O-])ccc2n1Cc1ccccc1
[1]
  GI50: > 68.4 µM (inactive)
[2]
  GI50: > 60.1 µM (inactive)
[3]
  GI50: > 83 µM (inactive)
[4]
  GI50: > 100 µM (inactive)
[5]
  GI50: > 100 µM (inactive)
[6]
  GI50: 63.5 µM (inactive)
[7]
  GI50: 73.3 µM (inactive)
[8]
  GI50: > 100 µM (inactive)
[9]
  GI50: > 100 µM (inactive)
[10]
  GI50: 37.3 µM (inactive)
[11]
  GI50: 89.9 µM (inactive)
[12]
  GI50: > 90.6 µM (inactive)
[13]
  GI50: 75.3 µM (inactive)
[14]
  GI50: 97.1 µM (inactive)
[15]
  GI50: > 100 µM (inactive)
[16]
  GI50: > 25.8 µM (inactive)
[17]
  GI50: > 93.3 µM (inactive)
[18]
  GI50: > 100 µM (inactive)
[19]
  GI50: 52 µM (inactive)
[20]
  GI50: > 72.6 µM (inactive)
[21]
  GI50: > 100 µM (inactive)
[22]
  GI50: > 100 µM (inactive)
[23]
  GI50: 37.3 µM (inactive)
[24]
  GI50: > 100 µM (inactive)
[25]
  GI50: > 86.5 µM (inactive)
[26]
  GI50: 99.1 µM (inactive)
[27]
  GI50: > 100 µM (inactive)
[28]
  GI50: 36.8 µM (inactive)
[29]
  GI50: > 100 µM (inactive)
[30]
  GI50: > 100 µM (inactive)
[31]
  GI50: > 100 µM (inactive)
[32]
  GI50: > 61.8 µM (inactive)
[33]
  GI50: > 100 µM (inactive)
[34]
  GI50: 49.3 µM (inactive)
[35]
  GI50: > 100 µM (inactive)
[36]
  GI50: > 100 µM (inactive)
[37]
  GI50: > 100 µM (inactive)
[38]
  GI50: > 100 µM (inactive)
[39]
  GI50: > 100 µM (inactive)
[40]
  GI50: > 100 µM (inactive)
[41]
  GI50: > 100 µM
[42]
  GI50: > 100 µM (inactive)
[43]
  GI50: > 100 µM (inactive)
[44]
  GI50: > 100 µM (inactive)
[45]
  GI50: > 81.3 µM (inactive)
[46]
  GI50: > 100 µM (inactive)
[47]
  GI50: > 100 µM (inactive)
[48]
  GI50: > 69.2 µM (inactive)
[49]
  GI50: > 100 µM (inactive)
[50]
  GI50: 51.9 µM (inactive)
[51]
  GI50: > 72.4 µM (inactive)
[52]
  GI50: > 92.7 µM (inactive)
[53]
  GI50: 27.3 µM (inactive)
